Source: ChEMBL document CHEMBL1150989, “Identification and characterisation of an inhibitor of interleukin-8: a receptor based approach” (Bioorg Med Chem Lett, 1996)
Where a SMILES comes first, the peptide text is derived from it. [ ]: non-standard residue; d: D form. Abu = CC[C@H](N)C(=O)O

Each molecule was assayed against T1, Interleukin-8 receptors, CXCR1/CXCR2 (Homo sapiens, UniProt P25025+P25024) (assay: Compound was tested for inhibitory activity against Interleukin-8 receptor).
T1 sequence (P25025 whole entry): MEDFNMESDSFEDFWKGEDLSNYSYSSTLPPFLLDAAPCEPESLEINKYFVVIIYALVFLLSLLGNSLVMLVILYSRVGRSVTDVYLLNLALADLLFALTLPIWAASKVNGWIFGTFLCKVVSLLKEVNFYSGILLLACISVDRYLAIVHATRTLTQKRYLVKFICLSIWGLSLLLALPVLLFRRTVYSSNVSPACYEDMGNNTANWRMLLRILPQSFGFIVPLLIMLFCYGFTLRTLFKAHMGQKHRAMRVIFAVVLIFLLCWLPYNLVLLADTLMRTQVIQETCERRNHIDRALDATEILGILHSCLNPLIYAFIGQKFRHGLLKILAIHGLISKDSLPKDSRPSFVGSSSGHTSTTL
T1 sequence (P25024 whole entry): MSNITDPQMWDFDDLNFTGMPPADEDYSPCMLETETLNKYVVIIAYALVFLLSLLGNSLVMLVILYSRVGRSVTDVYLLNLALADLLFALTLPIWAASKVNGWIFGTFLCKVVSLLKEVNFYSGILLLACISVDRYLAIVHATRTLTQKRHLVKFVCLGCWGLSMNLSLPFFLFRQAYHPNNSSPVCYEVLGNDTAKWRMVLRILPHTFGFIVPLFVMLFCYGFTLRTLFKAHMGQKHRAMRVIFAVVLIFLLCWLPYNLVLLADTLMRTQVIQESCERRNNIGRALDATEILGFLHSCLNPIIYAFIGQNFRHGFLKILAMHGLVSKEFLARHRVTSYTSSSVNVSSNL
Type: protein assay

IC50 [µM] | Molecule
19 | Ac-MWDFDDLNFTGMPPADEDYSP-NH2

What follows are molecules tested against T1, Interleukin-8 receptors, CXCR1/CXCR2 (assay: Inhibitory activity against interleukin-8 receptor using [125I]IL8).
Type: protein assay

Ki [µM] | Molecule
0.3 | CC[C@H](NC(=O)[C@@H]1CCCN1C(=O)[C@H](CO)NC(=O)[C@H](Cc1ccc(O)cc1)NC(=O)[C@H](CC(=O)O)NC(=O)[C@H](CCC(=O)O)NC(=O)[C@H](CC(=O)O)NC(=O)[C@H](C)NC(=O)[C@@H]1CCCN1C(=O)[C@@H]1CCCN1C(=O)[C@H](CCSC)NC(C)=O)C(=O)N[C@@H](CCSC)C(=O)N[C@@H](CC(C)C)C(=O)N[C@@H](CCC(=O)O)C(=O)N[C@H](C(=O)N[C@@H](CCC(=O)O)C(=O)N[C@H](C(=O)N[C@@H](CC(C)C)C(=O)N[C@@H](CC(N)=O)C(=O)N[C@@H](CCCCN)C(=O)N[C@@H](Cc1ccc(O)cc1)C(N)=O)[C@@H](C)O)[C@@H](C)O (Ac-MPPADEDYSP[Abu]MLETETLNKY-NH2)
> 30 | CC[C@H](NC(=O)[C@H](CC(C)C)NC(=O)[C@H](Cc1ccccc1)NC(=O)[C@@H](NC(=O)CNC(=O)[C@H](Cc1ccccc1)NC(=O)[C@@H](NC(=O)[C@H](Cc1c[nH]c2ccccc12)NC(=O)CNC(=O)[C@H](CC(N)=O)NC(=O)[C@@H](NC(C)=O)C(C)C)[C@@H](C)CC)[C@@H](C)O)C(=O)N[C@@H](CCCCN)C(=O)N[C@H](C(N)=O)C(C)C (Ac-VNGWIFGTFL[Abu]KV-NH2)
> 1 | CC[C@H](NC(=O)[C@@H](NC(C)=O)C(C)C)C(=O)N[C@@H](Cc1ccc(O)cc1)C(=O)N[C@@H](CCC(=O)O)C(=O)N[C@H](C(=O)N[C@@H](CC(C)C)C(=O)NCC(=O)N[C@@H](CC(N)=O)C(=O)N[C@@H](CC(=O)O)C(=O)N[C@H](C(=O)N[C@@H](C)C(=O)N[C@@H](CCCCN)C(=O)N[C@@H](Cc1c[nH]c2ccccc12)C(=O)N[C@@H](CCCN=C(N)N)C(=O)N[C@@H](CCSC)C(=O)N[C@H](C(=O)N[C@@H](CC(C)C)C(=O)N[C@@H](CCCN=C(N)N)C(=O)N[C@H](C(N)=O)[C@@H](C)CC)C(C)C)[C@@H](C)O)C(C)C (Ac-V[Abu]YEVLGNDTAKWRMVLRI-NH2)
1.7 | CSCC[C@H](NC(C)=O)C(=O)N1CCC[C@H]1C(=O)N1CCC[C@H]1C(=O)N[C@@H](C)C(=O)N[C@@H](CC(=O)O)C(=O)N[C@@H](CCC(=O)O)C(=O)N[C@@H](CC(=O)O)C(=O)N[C@@H](Cc1ccc(O)cc1)C(=O)N[C@@H](CO)C(=O)N1CCC[C@H]1C(N)=O (stereo in doubt; form 1)
1700 | CSCC[C@H](NC(C)=O)C(=O)N1CCC[C@H]1C(=O)N1CCC[C@H]1C(=O)N[C@@H](C)C(=O)N[C@@H](CC(=O)O)C(=O)N[C@@H](CCC(=O)O)C(=O)N[C@@H](CC(=O)O)C(=O)N[C@@H](Cc1ccc(O)cc1)C(=O)N[C@@H](CO)C(=O)N1CCC[C@H]1C(N)=O (stereo in doubt; form 2)
> 1 | Ac-ADTLMRTQVIQETAERRNNIGRALDATEI-NH2
23 | Ac-AWDFDDLNFTGMPPADEDYSP-NH2
190 | Ac-DDLNFTGMPPADEDYSP-NH2
68 | Ac-DFDDLNFTGMPPADEDYSP-NH2
750 | Ac-DLNFTGMPPADEDYSP-NH2
120 | Ac-FDDLNFTGMPPADEDYSP-NH2
10 | Ac-FRQAYHPNNSSP-NH2
1850 | Ac-FTGMPPADEDYSP-NH2
890 | Ac-GMPPADEDYSP-NH2
3100 | Ac-LNFTGMPPADEDYSP-NH2
55 | Ac-MADFDDLNFTGMPPADEDYSP-NH2
> 30 | Ac-MSNITDPQMWDFDDLNFTG-NH2
28 | Ac-MWAFDDLNFTGMPPADEDYSP-NH2
49 | Ac-MWDADDLNFTGMPPADEDYSP-NH2

Ki [µM] | Molecule
32 | Ac-MWDFADLNFTGMPPADEDYSP-NH2
62 | Ac-MWDFDALNFTGMPPADEDYSP-NH2
61 | Ac-MWDFDDANFTGMPPADEDYSP-NH2
42 | Ac-MWDFDDLAFTGMPPADEDYSP-NH2
107 | Ac-MWDFDDLNATGMPPADEDYSP-NH2
5 | Ac-MWDFDDLNFAGMPPADEDYSP-NH2
14 | Ac-MWDFDDLNFTGAPPADEDYSP-NH2
400 | Ac-MWDFDDLNFTGMAPADEDYSP-NH2
27 | Ac-MWDFDDLNFTGMPAADEDYSP-NH2
55 | Ac-MWDFDDLNFTGMPPAAEDYSP-NH2
29 | Ac-MWDFDDLNFTGMPPADADYSP-NH2
42 | Ac-MWDFDDLNFTGMPPADEAYSP-NH2
265 | Ac-MWDFDDLNFTGMPPADEDASP-NH2
15 | Ac-MWDFDDLNFTGMPPADEDYAP-NH2
155 | Ac-MWDFDDLNFTGMPPADEDYSA-NH2
13 | Ac-MWDFDDLNFTGMPPADEDYSP-NH2
2700 | Ac-NFTGMPPADEDYSP-NH2
2050 | Ac-TGMPPADEDYSP-NH2
27 | Ac-WDFDDLNFTGMPPADEDYSP-NH2
